Assay results from ChEMBL document CHEMBL1201862, “PubChem BioAssay data set” (2004).
Activity calls are given as the source filed them.

How the values were obtained:
[1] = cytotoxicity in HEK293 background cells – cell-based, dry powder, set 2, counter-screen for EBV LMP1 inhibitor project, dose response (AID 624374); assay type: functional
[2] = inhibitors of EBV LMP1 NF-kappaB signaling – cell-based, luciferase reporter, luminescence, dry powder, set 2, dose response (AID 624376); assay type: functional
[3] = target: T1, Sentrin-specific protease 1 (Homo sapiens, UniProt Q9P0U3); assay: SENP1 catalytic domain blockers, concentration series – biochemical, kinetic FRET, dose response (AID 651697); assay type: functional; conditions: read-out: IC50_Mean
T1 sequence (Q9P0U3 whole entry, the tested form may be a part): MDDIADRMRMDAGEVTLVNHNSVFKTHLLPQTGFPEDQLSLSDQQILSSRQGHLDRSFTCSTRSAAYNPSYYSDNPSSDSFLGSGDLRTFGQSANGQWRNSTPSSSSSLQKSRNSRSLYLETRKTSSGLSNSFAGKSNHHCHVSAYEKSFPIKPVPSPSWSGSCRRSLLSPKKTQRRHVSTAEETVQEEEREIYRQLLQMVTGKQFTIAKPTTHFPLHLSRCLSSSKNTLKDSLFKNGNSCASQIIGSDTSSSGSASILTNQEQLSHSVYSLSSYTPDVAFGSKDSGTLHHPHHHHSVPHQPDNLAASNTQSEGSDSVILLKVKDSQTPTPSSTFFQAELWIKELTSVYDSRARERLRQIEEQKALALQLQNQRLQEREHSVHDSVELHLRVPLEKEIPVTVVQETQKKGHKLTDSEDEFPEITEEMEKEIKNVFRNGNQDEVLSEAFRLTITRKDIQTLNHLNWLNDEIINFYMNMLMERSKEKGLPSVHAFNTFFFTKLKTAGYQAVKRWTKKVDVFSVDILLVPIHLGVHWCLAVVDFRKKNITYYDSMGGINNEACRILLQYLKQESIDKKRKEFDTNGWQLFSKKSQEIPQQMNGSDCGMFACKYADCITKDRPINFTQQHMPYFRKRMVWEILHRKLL

[4] = target: T1, Sentrin-specific protease 1; assay: Dose response confirmation of small molecule inhibitors of the catalytic domain of the SUMO protease, SENP1 in a FRET assay.; assay type: functional; conditions: read-out: IC50_Mean
[5] = target: Broad substrate specificity ATP-binding cassette transporter ABCG2 (Homo sapiens, UniProt Q9UNQ0); assay: blockers of JC-1 export by ABCG2 – Ig-MXP3 cells, flow cytometry, dose response (AID 1690); assay type: functional
Sequence of Broad substrate specificity ATP-binding cassette transporter ABCG2 (Q9UNQ0 whole entry): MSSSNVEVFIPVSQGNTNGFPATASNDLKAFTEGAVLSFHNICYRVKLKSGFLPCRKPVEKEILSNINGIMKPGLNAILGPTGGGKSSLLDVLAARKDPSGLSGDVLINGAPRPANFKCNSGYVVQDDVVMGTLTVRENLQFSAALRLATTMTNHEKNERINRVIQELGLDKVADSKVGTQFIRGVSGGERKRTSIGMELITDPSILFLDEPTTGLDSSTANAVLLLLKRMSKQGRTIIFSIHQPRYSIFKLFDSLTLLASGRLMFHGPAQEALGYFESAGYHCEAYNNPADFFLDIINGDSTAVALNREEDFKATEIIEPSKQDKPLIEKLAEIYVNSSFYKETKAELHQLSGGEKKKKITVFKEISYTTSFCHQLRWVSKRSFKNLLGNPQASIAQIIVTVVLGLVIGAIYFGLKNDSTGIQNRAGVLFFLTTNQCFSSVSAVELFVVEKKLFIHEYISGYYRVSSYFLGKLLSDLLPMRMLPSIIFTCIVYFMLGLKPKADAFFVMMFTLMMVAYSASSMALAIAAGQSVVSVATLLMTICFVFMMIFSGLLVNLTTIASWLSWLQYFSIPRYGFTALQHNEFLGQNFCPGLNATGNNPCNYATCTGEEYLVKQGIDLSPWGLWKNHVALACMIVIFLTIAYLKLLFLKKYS

[6] = target: Induced myeloid leukemia cell differentiation protein Mcl-1 (Homo sapiens, UniProt Q07820); assay type: functional
Sequence of Induced myeloid leukemia cell differentiation protein Mcl-1 (Q07820 whole entry): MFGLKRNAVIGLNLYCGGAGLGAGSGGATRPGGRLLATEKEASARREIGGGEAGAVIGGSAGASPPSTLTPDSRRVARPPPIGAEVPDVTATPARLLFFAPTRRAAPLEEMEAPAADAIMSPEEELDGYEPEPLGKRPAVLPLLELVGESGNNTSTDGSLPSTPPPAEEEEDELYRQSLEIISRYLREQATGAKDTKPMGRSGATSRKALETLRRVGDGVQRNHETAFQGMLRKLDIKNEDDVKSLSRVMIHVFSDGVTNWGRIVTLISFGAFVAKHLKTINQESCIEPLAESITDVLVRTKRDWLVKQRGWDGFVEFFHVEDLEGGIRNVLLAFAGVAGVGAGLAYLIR

[7] = target: T2, Mannose-6-phosphate isomerase (Homo sapiens, UniProt P34949); assay: MPI inhibition at elevated mannose 6-phosphate – biochemical, fluorescence intensity, high mannose 6-phosphate, primary screen (AID 1220)
T2 sequence (P34949 whole entry): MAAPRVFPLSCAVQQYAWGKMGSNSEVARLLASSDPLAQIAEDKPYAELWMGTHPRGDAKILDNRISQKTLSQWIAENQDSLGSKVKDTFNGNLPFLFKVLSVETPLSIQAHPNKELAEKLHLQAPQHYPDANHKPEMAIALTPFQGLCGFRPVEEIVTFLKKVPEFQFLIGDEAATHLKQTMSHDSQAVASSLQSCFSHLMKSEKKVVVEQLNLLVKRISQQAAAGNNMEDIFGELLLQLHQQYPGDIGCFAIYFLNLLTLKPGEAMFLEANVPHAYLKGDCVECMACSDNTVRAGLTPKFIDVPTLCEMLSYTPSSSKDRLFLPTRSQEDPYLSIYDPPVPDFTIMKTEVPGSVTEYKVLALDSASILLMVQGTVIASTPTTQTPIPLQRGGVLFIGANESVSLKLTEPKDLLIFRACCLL

[8] = target: T3, Replicative DNA helicase DnaB (Mycobacterium tuberculosis, UniProt P9WMR3); assay: DnaB intein splicing inhibitors, dose response, biochemical, cell-free fluorescence (AID 449749); assay type: functional
T3 sequence (P9WMR3 whole entry): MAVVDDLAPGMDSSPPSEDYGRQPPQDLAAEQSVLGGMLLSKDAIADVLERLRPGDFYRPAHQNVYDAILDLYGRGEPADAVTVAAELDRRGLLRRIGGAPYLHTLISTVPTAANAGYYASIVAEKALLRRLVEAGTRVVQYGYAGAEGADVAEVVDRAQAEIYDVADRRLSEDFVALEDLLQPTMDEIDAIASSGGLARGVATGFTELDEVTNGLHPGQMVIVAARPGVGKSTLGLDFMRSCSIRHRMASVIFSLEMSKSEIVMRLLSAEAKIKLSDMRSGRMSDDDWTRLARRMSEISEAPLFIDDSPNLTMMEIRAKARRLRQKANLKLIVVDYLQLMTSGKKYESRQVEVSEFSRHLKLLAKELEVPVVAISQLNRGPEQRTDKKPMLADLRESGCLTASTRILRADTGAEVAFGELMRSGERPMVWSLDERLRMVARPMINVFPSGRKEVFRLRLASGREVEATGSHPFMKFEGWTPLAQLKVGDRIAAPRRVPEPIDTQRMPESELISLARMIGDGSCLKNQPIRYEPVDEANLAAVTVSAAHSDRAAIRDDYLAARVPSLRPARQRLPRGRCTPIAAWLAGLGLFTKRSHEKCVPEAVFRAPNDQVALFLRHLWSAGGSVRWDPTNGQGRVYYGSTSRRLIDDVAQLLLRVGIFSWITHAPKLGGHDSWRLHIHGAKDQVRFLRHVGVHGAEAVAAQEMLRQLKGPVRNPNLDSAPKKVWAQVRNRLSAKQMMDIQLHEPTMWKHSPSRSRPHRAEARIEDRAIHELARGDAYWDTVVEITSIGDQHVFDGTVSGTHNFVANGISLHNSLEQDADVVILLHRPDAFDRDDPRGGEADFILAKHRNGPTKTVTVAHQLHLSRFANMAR

[9] = target: T4, Protein RecA (Mycobacterium tuberculosis, UniProt P9WHJ3); assay: Fluorescence Cell-Free Homogeneous Dose Retest to Identify Inhibitors of RecA-Intein Splicing Activity. [Related pubchem assays (depositor defined):AID2097, AID2223, AID489010, AID492950]; assay type: functional
T4 sequence (P9WHJ3 whole entry): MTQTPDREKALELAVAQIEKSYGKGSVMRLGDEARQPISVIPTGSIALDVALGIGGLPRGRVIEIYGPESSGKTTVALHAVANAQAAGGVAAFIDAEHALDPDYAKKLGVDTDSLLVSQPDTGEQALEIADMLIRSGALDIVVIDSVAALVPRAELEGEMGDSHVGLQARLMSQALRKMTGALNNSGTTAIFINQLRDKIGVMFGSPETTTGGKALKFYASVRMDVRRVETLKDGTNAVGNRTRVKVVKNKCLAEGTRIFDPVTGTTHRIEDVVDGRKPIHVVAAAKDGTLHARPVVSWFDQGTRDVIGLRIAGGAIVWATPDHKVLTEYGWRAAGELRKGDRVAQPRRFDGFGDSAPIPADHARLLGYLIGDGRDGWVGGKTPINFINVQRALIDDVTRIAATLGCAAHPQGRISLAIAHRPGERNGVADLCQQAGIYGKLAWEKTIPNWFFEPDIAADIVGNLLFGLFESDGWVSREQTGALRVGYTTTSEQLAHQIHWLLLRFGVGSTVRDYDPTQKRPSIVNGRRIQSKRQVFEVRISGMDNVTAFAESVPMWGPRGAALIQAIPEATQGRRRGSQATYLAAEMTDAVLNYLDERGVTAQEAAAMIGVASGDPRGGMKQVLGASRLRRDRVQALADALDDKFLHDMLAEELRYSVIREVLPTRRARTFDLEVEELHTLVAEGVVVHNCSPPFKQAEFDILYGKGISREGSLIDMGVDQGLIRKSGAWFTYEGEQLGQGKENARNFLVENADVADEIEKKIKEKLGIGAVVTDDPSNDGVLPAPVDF

[10] = target: Genome polyprotein (dengue virus type 2, UniProt P29990); assay: flavivirus cap methylation enzyme inhibition – biochemical, confirmation dose response, primary screen (AID 588689); assay type: functional
Sequence of Genome polyprotein (P29990 2492-3391 limits assumed): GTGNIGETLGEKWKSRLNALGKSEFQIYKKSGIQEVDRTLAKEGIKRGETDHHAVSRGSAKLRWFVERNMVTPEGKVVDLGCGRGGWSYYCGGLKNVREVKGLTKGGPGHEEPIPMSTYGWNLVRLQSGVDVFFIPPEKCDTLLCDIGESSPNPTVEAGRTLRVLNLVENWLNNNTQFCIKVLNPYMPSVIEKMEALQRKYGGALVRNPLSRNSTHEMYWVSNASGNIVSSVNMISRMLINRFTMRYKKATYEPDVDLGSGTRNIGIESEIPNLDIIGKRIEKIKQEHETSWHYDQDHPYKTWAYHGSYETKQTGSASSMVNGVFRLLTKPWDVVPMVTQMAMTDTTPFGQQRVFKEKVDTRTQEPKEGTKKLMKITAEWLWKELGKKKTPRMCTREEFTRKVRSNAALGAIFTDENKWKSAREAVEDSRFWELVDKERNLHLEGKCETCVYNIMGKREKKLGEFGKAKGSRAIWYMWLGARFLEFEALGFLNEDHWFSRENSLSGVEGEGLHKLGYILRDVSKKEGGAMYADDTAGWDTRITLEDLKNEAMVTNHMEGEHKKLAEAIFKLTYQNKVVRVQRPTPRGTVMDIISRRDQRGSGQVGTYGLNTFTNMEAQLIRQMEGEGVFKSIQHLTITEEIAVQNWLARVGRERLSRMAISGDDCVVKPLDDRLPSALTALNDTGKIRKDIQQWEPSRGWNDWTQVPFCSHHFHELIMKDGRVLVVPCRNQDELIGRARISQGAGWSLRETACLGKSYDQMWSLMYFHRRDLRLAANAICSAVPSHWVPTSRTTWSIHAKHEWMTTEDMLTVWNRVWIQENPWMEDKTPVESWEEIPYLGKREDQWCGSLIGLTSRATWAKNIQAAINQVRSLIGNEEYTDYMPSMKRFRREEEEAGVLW

[11] = target: T5, Sentrin-specific protease 8 (Homo sapiens, UniProt Q96LD8); assay type: functional
T5 sequence (Q96LD8 whole entry): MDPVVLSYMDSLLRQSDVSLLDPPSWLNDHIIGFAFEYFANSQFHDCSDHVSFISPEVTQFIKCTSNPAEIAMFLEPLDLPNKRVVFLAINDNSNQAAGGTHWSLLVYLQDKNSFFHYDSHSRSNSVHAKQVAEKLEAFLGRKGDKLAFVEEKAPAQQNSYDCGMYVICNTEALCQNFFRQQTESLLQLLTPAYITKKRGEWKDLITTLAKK

[12] = target: T5, Sentrin-specific protease 8; assay type: functional; remark: listed apart in the source
[13] = target: T6, Caspase-3 (Homo sapiens, UniProt P42574); assay: Dose-response confirmation of uHTS inhibitor hits of Sentrin-Specific Protease 8 in a Caspase-3 Fluorescence assay.; assay type: functional
T6 sequence (P42574 whole entry): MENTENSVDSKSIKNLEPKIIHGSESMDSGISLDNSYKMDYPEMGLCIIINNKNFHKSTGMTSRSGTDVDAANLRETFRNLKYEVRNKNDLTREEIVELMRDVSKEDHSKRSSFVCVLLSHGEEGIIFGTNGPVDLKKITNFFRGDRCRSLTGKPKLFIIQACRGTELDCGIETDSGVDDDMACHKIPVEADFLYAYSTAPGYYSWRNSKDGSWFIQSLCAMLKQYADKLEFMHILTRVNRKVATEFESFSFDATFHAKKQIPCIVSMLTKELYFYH

[14] = general mammalian cell viability loss – inhibitor set, cherry-pick, set 2, cytotoxicity control for miR-122 modulator project, dose response (AID 720697); assay type: functional, cell-based
[15] = Vibrio cholerae quorum sensing activators (AID 686977); assay type: functional
[16] = target: Fructose-bisphosphate aldolase (Mycobacterium tuberculosis, UniProt P9WQA3); assay: Fluorescence-based biochemical high throughput dose response assay for inhibitors of the fructose-bisphosphate aldolase (FBA) of M. tuberculosis.; assay type: functional
Sequence of Fructose-bisphosphate aldolase (P9WQA3 whole entry): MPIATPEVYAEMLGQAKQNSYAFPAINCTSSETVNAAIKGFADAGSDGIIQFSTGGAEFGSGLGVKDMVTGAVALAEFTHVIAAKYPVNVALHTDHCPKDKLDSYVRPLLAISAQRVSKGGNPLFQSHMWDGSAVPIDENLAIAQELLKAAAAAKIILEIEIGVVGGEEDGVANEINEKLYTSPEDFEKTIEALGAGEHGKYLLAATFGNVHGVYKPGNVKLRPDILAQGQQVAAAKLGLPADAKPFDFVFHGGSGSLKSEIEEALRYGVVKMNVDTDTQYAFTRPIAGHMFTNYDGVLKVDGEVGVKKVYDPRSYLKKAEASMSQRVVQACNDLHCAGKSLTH

[17] = viability loss in HeLa cells – cytotoxicity control for MgcRacGAP inhibitor project, dose response (AID 624300); assay type: functional
[18] = target: T7, Rac GTPase-activating protein 1 (Homo sapiens, UniProt Q9H0H5); assay: blockers of MgcRacGAP-driven Rac1 GTP hydrolysis – biochemical, ADP Hunter fluorescence, primary and confirmatory, confirmation (AID 624330); assay type: functional
T7 sequence (Q9H0H5 whole entry): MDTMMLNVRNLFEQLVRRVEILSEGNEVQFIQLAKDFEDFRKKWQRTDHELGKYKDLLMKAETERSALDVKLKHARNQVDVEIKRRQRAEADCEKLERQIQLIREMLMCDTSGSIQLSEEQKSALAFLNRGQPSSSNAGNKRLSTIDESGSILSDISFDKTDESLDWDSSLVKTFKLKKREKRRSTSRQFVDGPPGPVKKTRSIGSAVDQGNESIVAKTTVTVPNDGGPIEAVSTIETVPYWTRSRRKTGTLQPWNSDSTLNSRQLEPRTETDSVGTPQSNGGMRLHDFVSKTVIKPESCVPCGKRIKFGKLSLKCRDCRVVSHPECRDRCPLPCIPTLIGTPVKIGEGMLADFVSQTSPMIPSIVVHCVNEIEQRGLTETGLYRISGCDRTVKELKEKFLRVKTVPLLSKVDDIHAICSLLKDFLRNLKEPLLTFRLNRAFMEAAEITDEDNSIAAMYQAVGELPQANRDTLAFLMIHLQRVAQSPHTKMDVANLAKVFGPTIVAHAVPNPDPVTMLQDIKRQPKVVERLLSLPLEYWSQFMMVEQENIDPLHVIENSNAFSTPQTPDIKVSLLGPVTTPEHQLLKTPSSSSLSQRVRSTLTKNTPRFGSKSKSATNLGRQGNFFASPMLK

[19] = cells; assay type: functional, cell-based
[20] = Trypanosoma cruzi growth suppression in host cells – NIH3T3 host cells, beta-gal luminescence, confirmation (AID 2044); assay type: functional, cell-based;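 note: intracellular parasites grown in NIH/3T3 mouse fibroblasts as host cells; luminescent beta-galactosidase reporter signal from transgenic T. cruzi replicating inside host cells; inhibitors lower the luminescence signal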
[21] = cells; assay type: functional, cell-based; remark: listed apart in the source
[22] = NIH3T3 cell viability loss – ATP luminescence, mouse fibroblasts, counter-screen, dose response (AID 2010); assay type: functional, cell-based;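 note: cells exposed to compound for about 90 hours before reading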
[23] = THP-1 cell cytotoxicity, dose response, cytotoxicity control for non-replicating M. tuberculosis project (AID 489025); assay type: functional
[24] = HepG2 cell cytotoxicity, dose response, cytotoxicity control for non-replicating M. tuberculosis project (AID 489018); assay type: functional; conditions: Mycobacterium tuberculosis
[25] = Vero E6 cell cytotoxicity, dose response, cytotoxicity control for non-replicating M. tuberculosis project, secondary assay (AID 492998); assay type: functional, VeroE6; conditions: Vero C1008
[26] = target: Albumin (Bos taurus, UniProt P02769); assay: Counterscreen for inhibitors of T-cell receptor (TCR)-CD3 interaction: Fluorescence-based biochemical high throughput dose response assay to identify inhibitors of T-cell receptor (TCR)-CD3 interaction using a TAMRA-labeled BSA probe.; assay type: functional
Sequence of Albumin (P02769 whole entry): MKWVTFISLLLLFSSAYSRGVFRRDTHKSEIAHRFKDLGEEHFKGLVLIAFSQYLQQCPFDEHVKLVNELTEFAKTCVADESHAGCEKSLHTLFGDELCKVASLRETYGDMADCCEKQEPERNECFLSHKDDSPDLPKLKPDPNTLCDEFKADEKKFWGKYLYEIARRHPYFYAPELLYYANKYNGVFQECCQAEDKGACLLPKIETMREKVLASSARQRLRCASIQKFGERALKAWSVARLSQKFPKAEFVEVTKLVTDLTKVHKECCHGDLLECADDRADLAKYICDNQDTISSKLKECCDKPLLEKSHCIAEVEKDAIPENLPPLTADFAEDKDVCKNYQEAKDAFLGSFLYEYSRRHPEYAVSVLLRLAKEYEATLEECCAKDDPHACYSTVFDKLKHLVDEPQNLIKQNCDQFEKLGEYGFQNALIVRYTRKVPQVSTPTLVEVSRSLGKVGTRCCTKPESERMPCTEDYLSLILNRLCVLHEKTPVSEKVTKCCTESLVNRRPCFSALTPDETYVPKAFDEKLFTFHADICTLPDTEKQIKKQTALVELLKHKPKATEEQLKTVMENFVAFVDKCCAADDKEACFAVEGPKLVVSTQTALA

[27] = test system: Cryptococcus neoformans; assay: PubChem AID 686997; assay type: functional, organism-based; conditions: Cryptococcus neoformans
[28] = test system: Cryptococcus neoformans; assay: Cryptococcus growth inhibition by alamar blue – cell lysis, cherry-picks, replicate tests, mechanism study for C. neoformans antifungal project, dose response (AID 686999); assay type: functional, organism-based
[29] = test system: Vero; assay: viability loss in Vero cells – cell-based, plate reader, cherry-pick samples, cytotoxicity control, dose response (AID 687020); assay type: functional; conditions: Chlorocebus sabaeus
[30] = test system: A549; assay: viability loss in A549 cells – cell-based, plate reader, cherry-pick samples, cytotoxicity control, dose response (AID 687028); assay type: functional; conditions: Homo sapiens

COc1cccc(-c2cccc(-c3nc(C(=O)NCC(F)(F)F)cc4c3[C@H](CCO)N([S@@+]([O-])C(C)(C)C)C4)c2)c1
AbsAC35 [1]: 43.43 µM | AbsAC35 [2]: 56.19 µM

CCOC(=O)/C=C/c1cc(F)ccc1O
IC50 [3]: 13.8 µM (active) | IC50 [4]: 11.2 µM (active)

CC1=NN(c2ccc([N+](=O)[O-])cc2)C(=O)/C1=C/N(C)C
EC50 [5]: 4 µM (active)

Nc1scc2c(C(=O)N/N=C/c3ccc(Cl)cc3)nn(-c3ccccc3)c(=O)c12
IC50 [6]: 1.95 µM (active) | IC50 [7]: > 50 µM (not active) | AC50 [8]: 7.02 µM (active) | EC50 [9]: 5.71 µM (active) | IC50 [10]: 70.6 µM (active) | IC50 [11]: 0.5 µM (active) | IC50 [12]: 0.577 µM (active) | IC50 [13]: 4.47 µM (active)

O=C1NC(=O)N(CCC2=CCCCC2)C(=O)/C1=C\c1cccs1
AC50 [14]: 1.06 µM (active)

O=C(Nc1ccc(F)cc1F)c1sccc1SCc1cccc(C(F)(F)F)c1
IC50 [15]: 77.9 µM (active)

CC1=CC2=NCC(O)CN2C=C1 (stereo not given)
IC50 [16]: 5.11 µM (active)

COc1cc(/C=N/NC(=O)CCn2c3ccccc3c3ccccc32)ccc1O
CC50 [17]: 100 µM (active) | IC50 [18]: 85.8 µM (active)

O=C(N/N=C/c1cc(Br)cc(Br)c1O)c1cccc(N2CCCC2=O)c1
EC50 [19]: 138 µM (active) | EC50 [20]: 1.55 µM (active) | EC50 [21]: > 350 µM (not active) | EC50 [22]: > 60 µM (not active) | CC50 [23]: 15.2 µM (active) | CC50 [24]: > 20 µM (active) | CC50 [25]: 15 µM (active) | IC50 [26]: > 94.1 µM (inactive)

COC(=O)C1=C(C)N(Cc2ccc(Cl)cc2)C(=S)NC1c1ccccc1 (stereo not given)
AC50 [27]: 25.9 µM (active) | AC50 [28]: 36.1 µM (active)

COc1ccc(S(=O)(=O)N(CC(C)C)CC(C)C)c2cccnc12
AC50 [29]: 39 µM (active) | AC50 [30]: 19.5 µM (active)
